Data published in publication PMC9888480, “Carboranyl-1,8-naphthalimide intercalators induce lysosomal membrane permeabilization and ferroptosis in cancer cell lines” (Journal of Enzyme Inhibition and Medicinal Chemistry, 2023).
Entries after “also recorded” stand apart in the source; their conditions may differ.

Tests used:
[1] = test system: HepG2 cells; assay: Oxidative stress (ROS) measurement by flow cytometry (H2DCFDA); type: cell-based, human; conditions: HepG2, 24 h, total IC50 concentration
Experimental: The HepG2 cells were seeded (2 × 10^5 cells/well) onto 12-well plates and cultured in supplemented EMEM at 37 °C under 5% CO2 saturation until 70–80% confluency was reached. […] The intracellular ROS level was analysed by staining with H2DCFDA (ex/em: ∼492–495/517–527 nm) in accordance with the manufacturer’s protocol (Thermo Fisher Scientific, Waltham, MA, USA), wherein ROS trigger the fluorescence. The cells were separated by trypsin (Corning®) and washed twice with DPBS (1 ml, Capricorn). The pelleted cells were suspended in 0.5 ml of DPBS containing H2DCFDA at the final concentration of 0.5 µM. In order to eliminate dead cells from analysis, propidium iodide (10 µg/ml) was also added to the staining mix. The cells were then incubated at 37 °C for 30 min in the dark and then analysed with excitation at 488 nm using a FACSCalibur flow cytometer (Becton Dickinson, Franklin Lakes, NJ, USA), and the data were analysed using the FlowJo software (Becton Dickinson).

[2] = test system: ct-DNA; assay: UV–vis spectra titration with ct-DNA (binding constant Kb); parameters: species or system calf; conditions: for bathochromic effect: UV–vis, addition of 1.25–15 µM ct-DNA to 10 µM compound; for Kb compared to that of mitonafide: mitonafide Kb 2.54 × 10^5
Experimental: The measurements were performed by adding aliquots of DMSO stock solution of the tested compounds to the buffer solution (pH 7.4, 20 mM, 50 mM NaCl, Tris–HCl buffer, DMSO content of the final solutions = 0.54–0.65%) to the final concentration 10 µM. The tested compounds were incubated for 5 min, with increasing concentrations ranging from 0 to 15 µM of ct-DNA at 37 °C. Then, the UV–vis absorption spectra between 300 and 500 nm were recorded using a GBC Cintra10 UV–VIS spectrometer equipped with a GBC Thermocell Peltier Power Supply with the use of a 1-cm-path-length cell. The binding constant was calculated according to the following equation[70]: A0/A−A0= εG/εH−G−εG+ εG/εH−G−εG × 1/Kb[DNA] where Kb is the binding constant; A0 and a are absorbances of the free tested compound and the apparent one; εG and εH–G are their coefficient, respectively; [DNA] is the concentration of DNA in base pairs. The slope to intercept ratio of the plot between A0/A − A0 and 1/[DNA] yielded the binding constant.

[3] = test system: ct-DNA; assay: Melting temperature (Tm) measurements of ct-DNA; type: binding, calf; conditions: r = [compound]/[ct-DNA] = 0.3, cacodylate buffer pH 7.0; Tm of free ct-DNA 74 °C; error ±0.5 °C
Experimental: The measurements were carried out by adding aliquots of DMSO stock solution of the tested compounds to the buffer solution (pH 7.0, 20 mM, cacodylate buffer, DMSO content of the final solution = 0.33–0.39%). Tm curves were collected at r = 0.3 (r = [compound]/[ct-DNA]) to assure the dominant binding mode. Thermal melting curves were plotted considering the absorption change at 260 nm as a function of temperature using a GBC Cintra10 UV–VIS spectrometer (Dandenong, Australia) equipped with a GBC Thermocell Peltier Power Supply (Dandenong, Australia) with the use of a 1-cm-path-length cell. The absorbance of the samples was monitored at 260 nm from 35 to 95 °C with a heating rate of 1 °C/min. Tm values are the midpoints or the transition curves determined from the maximum of the first derivative. ΔTm values were calculated by subtracting the Tm of the free nucleic acid from the Tm of the sample. All ΔTm values reported in the study were measured in triplicate. The error in ΔTm was ±0.5 °C.

[4] = test system: HepG2 cells; assay: Apoptosis/necrosis assay by flow cytometry (YO-PRO-1/PI); type: cell-based, human; conditions: HepG2, 24 h, YO-PRO1/PI; for early apoptotic cells: half and total IC50 concentrations tested
Experimental: Apoptosis/necrosis assay was carried out by double staining of cells with YO-PRO-1 (Thermo Fisher Scientific) and propidium iodide (PI, Sigma-Aldrich) fluorescent dyes. Briefly, HepG2 cells (2 × 10^5) were seeded onto 6-well plates. […] Subsequently, the cells were detached with trypsin (Thermo Fisher Scientific), washed twice with DPBS (1 ml) (Thermo Fisher Scientific), and stained with YO-PRO-1 (0.5 µM) and PI (10 µg/ml) according to the manufacturer’s protocol for 30 min at 37 °C in the dark. Immediately after staining, the cells were analysed with 488 nm excitation using a FACSCalibur flow cytometer (Becton Dickinson), and data were analysed using the FlowJo software (Becton Dickinson).

[5] = test system: HepG2 cells; assay: Real-time cell migration assay (xCELLigence); type: cell-based, human; conditions: one-fourth and half of IC50, 24 h pre-treatment
Experimental: Transwell cell migration experiments were performed using an xCELLigence RTCA Analyser (Roche, Switzerland) in CIM plates (ACEA Biosciences, San Diego, CA, USA). Each well consisted of an upper and a lower chamber separated by a microporous polyethylene terephthalate membrane containing randomly distributed 8-µm pores. Prior to the migration assay, the HepG2 cells (2 × 10^4) were seeded onto 48-well plates containing the growth medium (EMEM) and incubated until 70–80% confluency at 37 °C in a humidified atmosphere containing 5% CO2. […] Then, 160 µl of complete growth medium (supplemented with 10% FBS) was added to the lower chamber, and 50 µl of serum-free growth medium was added to the upper chambers of the CIM plate. The plates were incubated at 37 °C under 5% CO2 saturation for 1 h prior to insertion into the xCELLigence platform. To initiate a transwell migration experiment, the cells were detached with trypsin (Corning®), resuspended in the serum-free growth medium, and seeded in the upper chamber at a density of 1 × 10^4 cells in 100 µl per well that was previously treated with the compounds. The impedance of the microelectrode array was monitored and converted to CI. Normalisation values were recorded using the RTCA Software 1.2.1. Readouts were performed every 30 min for 72 h.

Substance	ROS generation (green fluorescence intensity) [1]	bathochromic effect [2] [nm]	Kb compared to that of mitonafide [2]	ΔTm ct-DNA [3] [°C]	early apoptotic cells [4] [%]	effect on migration of HepG2 cells (slope of cell index, first 24 h) [5]	necrosis (PI positive cells) [4] [%]
4-[(6-[(1,2-Dicarba-closo-dodecaborane-1-yl)ethylamino]hexyl)amino]-3-nitro-N-[2-(N-pyrrolidinyl)ethyl]-1,8-naphthalimide [Compound 36]	weakest ROS inductor	7	similar	10.00	12.55		
4-[(6-[(1,2-Dicarba-closo-dodecaborane-1-yl)ethylamino]hexyl)amino]-N-[2-(dimethylamino)ethyl]-3-nitro-1,8-naphthalimide [Compound 34]	increased approximately twofold	9		11.67	9.12	highest influence on the migration activity	
4-[(6-[(1,7-Dicarba-closo-dodecaborane-1-yl)ethylamino]hexyl)amino]-3-nitro-N-[2-(N-pyrrolidinyl)ethyl]-1,8-naphthalimide [Compound 37]	increased approximately twofold	8		13.00	12.56	highest influence on the migration activity	
4-[(6-[(1,7-Dicarba-closo-dodecaborane-1-yl)ethylamino]hexyl)amino]-N-[2-(dimethylamino)ethyl]-3-nitro-1,8-naphthalimide [Compound 35]	moderate effect	10	approximately 1.5 fold	13.00	6.7	highest influence on the migration activity; also recorded: highest impairment	55.75
